Our source for the IC50 values is ChEMBL document CHEMBL1127249, “Design, structure activity and x-ray crystallographic studies of pseudosymmetrical nonpeptidyl HIV-1 protease inhibitors” (Bioorg Med Chem Lett, 1994).

Structures are written as SMILES.

The subject of experiment [1] is Human immunodeficiency virus 1. In words: Antiviral activity against HIV-1. Type of experiment: functional, organism-based.
The target of experiment [2] is Human immunodeficiency virus type 1 protease (Human immunodeficiency virus 1, UniProt Q72874). In words: Compound was tested for inhibitory activity against recombinant HIV-1 protease using 125 I-SPA (scintillation proximity assay).

A word on the IC50: it is the point on the concentration scale where inhibition reaches its midpoint. In the case of `O=C(N[C@H]1CCCC[C@@H]1NC(=O)[C@H](Cc1ccccc1)CC(O)C[C@@H](Cc1ccccc1)C(=O)N[C@H]1CCCC[C@@H]1NC(=O)c1ccncc1)c1ccncc1`, the IC50 in experiment [1] was more than 20000 nM; in experiment [2] it was 350 nM.
Turning to `CC(=O)N[C@H]1CCCC[C@@H]1NC(=O)[C@H](Cc1ccccc1)CC(O)C[C@@H](Cc1ccccc1)C(=O)N[C@H]1CCCC[C@@H]1NC(C)=O`, the IC50 in experiment [2] was 3000 nM.
Turning to `O=C(N[C@H]1CCCC[C@@H]1NC(=O)[C@H](Cc1ccccc1)CC(O)C[C@@H](Cc1ccccc1)C(=O)N[C@H]1CCCC[C@@H]1NC(=O)c1ccccn1)c1ccccn1`, the IC50 was more than 20000 nM in experiment [1] and 400 nM in experiment [2].
The matching figures for `O=C(N[C@H]1CCCC[C@@H]1NC(=O)[C@H](Cc1ccccc1)CC(O)C[C@@H](Cc1ccccc1)C(=O)N[C@H]1CCCC[C@@H]1NC(=O)c1ccc2ccccc2n1)c1ccc2ccccc2n1`: 2000 nM and 40 nM.
On to `CC(C)(C)OC(=O)N[C@H]1CCCC[C@@H]1NC(=O)[C@H](Cc1ccccc1)CC(O)C[C@@H](Cc1ccccc1)C(=O)N[C@H]1CCCC[C@@H]1NC(=O)OC(C)(C)C`, for which the IC50 in experiment [2] is more than 10000 nM.
Same read-out and setting: for `O=C(N[C@H]1CCCC[C@@H]1NC(=O)[C@H](Cc1ccccc1)CC(O)C[C@@H](Cc1ccccc1)C(=O)N[C@H]1CCCC[C@@H]1NC(=O)c1cccnc1)c1cccnc1` the value was 600 nM; for `O=C(N[C@H]1CCCC[C@@H]1NC(=O)[C@H](Cc1ccccc1)CC(O)C[C@@H](Cc1ccccc1)C(=O)N[C@H]1CCCC[C@@H]1NC(=O)c1cc2ccccc2cn1)c1cc2ccccc2cn1`, 45 nM.
